Laboratory results from ChEMBL document CHEMBL4602617, “Discovery and optimization of heteroaryl piperazines as potent and selective PI3Kδ inhibitors” (Bioorg Med Chem Lett, 2020).

Experiments:
[1] = biological target: Serine/threonine-protein kinase D3 (Homo sapiens, UniProt O94806); assay: Inhibition of recombinant full length human GST-tagged PKD3 expressed in baculovirus expression system using serine/threonine-17 peptide as substrate incubated for 60 mins in presence of ATP by Z'-LYTE assay
[2] = biological target: Glycogen synthase kinase-3 beta (Homo sapiens, UniProt P49841); assay: Inhibition of recombinant full length human His-tagged GSK3beta expressed in baculovirus expression system using serine/threonine-9 peptide as substrate incubated for 60 mins in presence of ATP by Z'-LYTE assay
[3] = biological target: Ribosomal protein S6 kinase alpha-4 (Homo sapiens, UniProt O75676); assay: Inhibition of recombinant full length human GST-tagged RPS6KA4 expressed in baculovirus expression system using ser/Thr01 peptide as substrate incubated for 60 mins in presence of ATP by Z'-LYTE assay
[4] = biological target: Tyrosine-protein kinase Lck (Homo sapiens, UniProt P06239); assay: Inhibition of recombinant full length human His-tagged LCK expressed in baculovirus expression system using tyrosine-2 peptide as substrate incubated for 60 mins in presence of ATP by Z'-LYTE assay
[5] = biological target: Cathepsin G (Homo sapiens) (UniProt P08311); assay: Inhibition of endogenous human cathepsin G at 10 uM using Suc-Ala-Ala-Pro-Phe-AMC as substrate after 30 mins by spectrophotometric analysis relative to control
[6] = biological target: Receptor tyrosine-protein kinase erbB-2 (Homo sapiens, UniProt P04626); assay: Inhibition of human recombinant ERBB2 (537 to 636 residues) expressed in Escherichia coli using Tyr 06 as substrate after 1 hr in presence of ATP by Z'-LYTE assay
[7] = biological target: Casein kinase I isoform epsilon (Homo sapiens, UniProt P49674); assay: Inhibition of recombinant human full-length GST-tagged CSNK1E expressed in insect cells using FRET-labeled Ser/Thr 11 peptide as substrate measured after 1 hr in presence of ATP by Z'-lyte assay
[8] = biological target: cAMP-dependent protein kinase catalytic subunit alpha (Homo sapiens, UniProt P17612); assay: Inhibition of recombinant human His-tagged PRKACA catalytic domain expressed in Escherichia coli using fluorophore-labeled serine/threonine-1 peptide as substrate incubated for 60 mins in presence of ATP by Z'-LYTE assay
[9] = biological target: RAC-gamma serine/threonine-protein kinase (Homo sapiens, UniProt Q9Y243); assay: Inhibition of recombinant full length human His-tagged AKT3 expressed in baculovirus expression system using Ser/Thr-06 peptide as substrate incubated for 60 mins in presence of ATP by Z'-LYTE assay
Angiopoietin-1 receptor = Angiopoietin-1 receptor (Homo sapiens, UniProt Q02763); assay: Inhibition of recombinant human GST-tagged TIE2 (817 to 1101 residues) expressed in baculovirus expression system using tyrosine-5 peptide as substrate incubated for 60 mins in presence of ATP by Z'-LYTE assay
[10] = biological target: Serine/threonine-protein kinase DCLK2 (Homo sapiens, UniProt Q8N568); assay: Inhibition of recombinant full length human GST-tagged DCAMKL2 expressed in baculovirus expression system using serine/threonine-17 peptide as substrate incubated for 60 mins in presence of ATP by Z'-LYTE assay
[11] = biological target: Protein kinase C beta type (Homo sapiens, UniProt P05771); assay: Inhibition of recombinant full length human GST-tagged PKCbeta2 expressed in insect expression system using serine/threonine-7 peptide as substrate incubated for 60 mins in presence of ATP by Z'-LYTE assay
[12] = biological target: Serine/threonine-protein kinase PLK2 (Homo sapiens, UniProt Q9NYY3); assay: Inhibition of recombinant full length human GST-tagged PLK2 expressed in baculovirus expression system using serine/threonine-16 peptide as substrate incubated for 60 mins in presence of ATP by Z'-LYTE assay
[13] = biological target: RAC-alpha serine/threonine-protein kinase (Homo sapiens, UniProt P31749); assay: Inhibition of recombinant full length human His-tagged AKT1 expressed in baculovirus expression system using serine/threonine-06 peptide as substrate incubated for 60 mins in presence of ATP by Z'-LYTE assay
[14] = biological target: Glutamate NMDA receptor (Rattus norvegicus) (UniProt P35439+Q00959+Q00960+Q00961+Q62645+Q8VHN2+Q9R1M7); assay: Displacement of [3H]TCP from glutamate NMDA receptor phencyclidine binding site in Wistar rat cerebral cortex at 10 uM incubated for 45 mins by radiometric scintillation analysis relative to control
[15] = biological target: Dual specificity mitogen-activated protein kinase kinase 6 (Homo sapiens, UniProt P52564); assay: Inhibition of recombinant full length human His-tagged MAP2K6 expressed in baculovirus expression system using serine/threonine-3 peptide as substrate incubated for 60 mins in presence of ATP by Z'-LYTE assay
[16] = biological target: Muscle, skeletal receptor tyrosine-protein kinase (Homo sapiens, UniProt O15146); assay: Inhibition of recombinant human GST-tagged MUSK cytoplasmic domain (519 to 869 residues) expressed in baculovirus expression system using tyrosine-4 peptide as substrate incubated for 60 mins in presence of ATP by Z'-LYTE assay
[17] = biological target: C-X-C chemokine receptor type 4 (Homo sapiens) (UniProt P61073); assay: Displacement of [125I]SDF-1alpha from recombinant full length human recombinant CXCR4 expressed in Chem-1 cells at 10 uM measured after 90 mins by radiometric scintillation analysis relative to control; assay type: cell-based
[18] = biological target: Mitogen-activated protein kinase 14 (Homo sapiens, UniProt Q16539); assay: Inhibition of recombinant full length GST-tagged human MAPK14 expressed in Escherichia coli using Ser/Thr 04 as substrate after 1 hr in presence of ATP by Z'LYTE assay
[19] = biological target: Casein kinase I isoform alpha (Homo sapiens, UniProt P48729); assay: Inhibition of recombinant full length human GST-tagged CSNK1A1 expressed in baculovirus expression system using fluorophore-labeled serine/threonine-11 peptide as substrate incubated for 60 mins in presence of ATP by Z'-LYTE assay
[20] = biological target: Phosphatidylinositol 4-phosphate 3-kinase C2 domain-containing subunit alpha (Homo sapiens, UniProt O00443); assay: Inhibition of recombinant full length human N-terminal GST-tagged PIK3C2alpha catalytic domain expressed in baculovirus expression system using PI lipid as substrate incubated for 60 mins in presence of ATP by Adapta assay
MAO-A = MAO-A (Homo sapiens, UniProt P21397); assay: Inhibition of recombinant full-length human MAO-A expressed in insect cells at 10 uM using kynuramine as substrate after 60 mins by spectrophotometric analysis relative to control; conditions: probe kynuramine
[21] = biological target: B2 bradykinin receptor (Homo sapiens) (UniProt P30411); assay: Displacement of [3H]bradykinin from recombinant full length human recombinant bradykinin B2 receptor expressed in Chem-1 cells at 10 uM measured after 60 mins by radiometric scintillation analysis relative to control; assay type: cell-based
[22] = biological target: Vascular endothelial growth factor receptor 3 (Homo sapiens, UniProt P35916); assay: Inhibition of recombinant human GST-tagged FLT4 cytoplasmic domain expressed in baculovirus expression system after 1 using tyrosine 4 as substrate after 1 hr in presence of ATP by ZYLTE assay
Sequence of Vascular endothelial growth factor receptor 3 (P35916 whole entry, the tested form may be a part): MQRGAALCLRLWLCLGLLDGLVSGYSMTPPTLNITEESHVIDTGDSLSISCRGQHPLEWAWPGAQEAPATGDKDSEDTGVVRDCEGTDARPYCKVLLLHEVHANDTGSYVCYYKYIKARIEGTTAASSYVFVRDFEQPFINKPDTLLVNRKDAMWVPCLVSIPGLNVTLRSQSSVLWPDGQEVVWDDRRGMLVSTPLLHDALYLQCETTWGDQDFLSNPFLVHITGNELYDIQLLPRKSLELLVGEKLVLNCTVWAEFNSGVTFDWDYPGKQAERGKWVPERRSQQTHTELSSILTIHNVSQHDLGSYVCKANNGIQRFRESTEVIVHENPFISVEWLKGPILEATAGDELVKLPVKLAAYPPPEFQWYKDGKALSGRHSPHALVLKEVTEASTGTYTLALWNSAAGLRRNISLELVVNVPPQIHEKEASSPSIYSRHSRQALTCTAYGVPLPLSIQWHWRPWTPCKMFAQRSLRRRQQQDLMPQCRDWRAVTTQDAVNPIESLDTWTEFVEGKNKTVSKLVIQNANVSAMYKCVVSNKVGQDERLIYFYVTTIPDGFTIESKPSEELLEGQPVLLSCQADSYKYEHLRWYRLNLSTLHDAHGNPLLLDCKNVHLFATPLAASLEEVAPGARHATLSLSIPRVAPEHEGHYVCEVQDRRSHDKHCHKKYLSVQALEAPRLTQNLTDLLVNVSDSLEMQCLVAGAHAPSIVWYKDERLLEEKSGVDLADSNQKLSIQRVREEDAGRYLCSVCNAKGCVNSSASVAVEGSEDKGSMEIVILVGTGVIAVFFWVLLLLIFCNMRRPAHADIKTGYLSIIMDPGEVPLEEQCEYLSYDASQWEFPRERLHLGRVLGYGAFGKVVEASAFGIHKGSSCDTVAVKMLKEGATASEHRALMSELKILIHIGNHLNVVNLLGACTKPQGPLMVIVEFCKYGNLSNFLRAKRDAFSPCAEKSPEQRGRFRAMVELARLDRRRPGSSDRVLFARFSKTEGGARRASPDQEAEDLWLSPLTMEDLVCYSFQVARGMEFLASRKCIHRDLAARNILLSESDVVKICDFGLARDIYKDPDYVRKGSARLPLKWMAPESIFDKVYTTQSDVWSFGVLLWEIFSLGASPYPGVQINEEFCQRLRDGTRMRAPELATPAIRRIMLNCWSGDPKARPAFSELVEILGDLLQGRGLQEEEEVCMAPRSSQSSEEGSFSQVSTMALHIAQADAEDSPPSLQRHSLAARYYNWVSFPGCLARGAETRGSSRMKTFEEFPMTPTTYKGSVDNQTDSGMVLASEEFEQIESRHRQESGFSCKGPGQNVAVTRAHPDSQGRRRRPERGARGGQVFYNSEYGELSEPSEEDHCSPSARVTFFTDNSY

Sequence of B2 bradykinin receptor (Homo sapiens) (P30411 whole entry, the tested form may be a part): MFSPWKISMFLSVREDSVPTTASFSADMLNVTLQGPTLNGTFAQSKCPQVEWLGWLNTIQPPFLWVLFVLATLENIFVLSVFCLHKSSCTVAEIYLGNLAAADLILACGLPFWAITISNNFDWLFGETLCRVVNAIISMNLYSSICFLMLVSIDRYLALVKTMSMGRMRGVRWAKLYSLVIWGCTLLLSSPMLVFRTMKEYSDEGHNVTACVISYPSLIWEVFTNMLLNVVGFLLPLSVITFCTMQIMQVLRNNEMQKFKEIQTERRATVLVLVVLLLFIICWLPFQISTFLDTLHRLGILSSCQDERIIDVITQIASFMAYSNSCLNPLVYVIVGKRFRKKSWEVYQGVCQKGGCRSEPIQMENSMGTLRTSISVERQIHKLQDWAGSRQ
Sequence of Casein kinase I isoform epsilon (P49674 whole entry, the tested form may be a part, canonical isoform): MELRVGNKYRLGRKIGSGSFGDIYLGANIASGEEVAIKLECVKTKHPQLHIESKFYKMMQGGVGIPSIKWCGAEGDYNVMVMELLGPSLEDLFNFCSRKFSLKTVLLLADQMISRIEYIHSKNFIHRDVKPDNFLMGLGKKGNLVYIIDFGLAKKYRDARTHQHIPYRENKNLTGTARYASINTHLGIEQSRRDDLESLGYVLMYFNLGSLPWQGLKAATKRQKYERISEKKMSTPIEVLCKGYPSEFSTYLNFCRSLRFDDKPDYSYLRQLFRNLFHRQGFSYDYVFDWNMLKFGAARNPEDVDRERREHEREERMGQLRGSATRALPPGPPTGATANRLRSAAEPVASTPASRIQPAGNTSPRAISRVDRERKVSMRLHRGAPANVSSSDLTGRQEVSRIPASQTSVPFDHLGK
Sequence of Dual specificity mitogen-activated protein kinase kinase 6 (P52564 whole entry, the tested form may be a part): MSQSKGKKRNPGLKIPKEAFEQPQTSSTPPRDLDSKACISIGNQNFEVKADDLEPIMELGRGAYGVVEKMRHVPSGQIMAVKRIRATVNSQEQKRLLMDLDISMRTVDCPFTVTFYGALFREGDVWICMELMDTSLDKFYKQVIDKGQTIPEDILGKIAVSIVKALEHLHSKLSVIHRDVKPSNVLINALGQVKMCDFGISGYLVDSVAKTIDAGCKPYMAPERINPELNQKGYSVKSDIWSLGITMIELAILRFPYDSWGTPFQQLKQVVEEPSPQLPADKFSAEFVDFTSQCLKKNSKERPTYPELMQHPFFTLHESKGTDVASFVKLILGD
Sequence of C-X-C chemokine receptor type 4 (Homo sapiens) (P61073 whole entry): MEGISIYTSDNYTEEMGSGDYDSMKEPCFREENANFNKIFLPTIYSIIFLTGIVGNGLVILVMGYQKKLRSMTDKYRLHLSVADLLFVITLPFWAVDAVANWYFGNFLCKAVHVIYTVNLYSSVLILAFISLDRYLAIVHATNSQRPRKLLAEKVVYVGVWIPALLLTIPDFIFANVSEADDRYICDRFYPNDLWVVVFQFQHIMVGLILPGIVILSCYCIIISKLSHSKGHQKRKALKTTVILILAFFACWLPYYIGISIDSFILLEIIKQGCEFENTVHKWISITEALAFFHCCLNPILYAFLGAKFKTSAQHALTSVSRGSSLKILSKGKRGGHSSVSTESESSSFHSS
Sequence of Ribosomal protein S6 kinase alpha-4 (O75676 whole entry): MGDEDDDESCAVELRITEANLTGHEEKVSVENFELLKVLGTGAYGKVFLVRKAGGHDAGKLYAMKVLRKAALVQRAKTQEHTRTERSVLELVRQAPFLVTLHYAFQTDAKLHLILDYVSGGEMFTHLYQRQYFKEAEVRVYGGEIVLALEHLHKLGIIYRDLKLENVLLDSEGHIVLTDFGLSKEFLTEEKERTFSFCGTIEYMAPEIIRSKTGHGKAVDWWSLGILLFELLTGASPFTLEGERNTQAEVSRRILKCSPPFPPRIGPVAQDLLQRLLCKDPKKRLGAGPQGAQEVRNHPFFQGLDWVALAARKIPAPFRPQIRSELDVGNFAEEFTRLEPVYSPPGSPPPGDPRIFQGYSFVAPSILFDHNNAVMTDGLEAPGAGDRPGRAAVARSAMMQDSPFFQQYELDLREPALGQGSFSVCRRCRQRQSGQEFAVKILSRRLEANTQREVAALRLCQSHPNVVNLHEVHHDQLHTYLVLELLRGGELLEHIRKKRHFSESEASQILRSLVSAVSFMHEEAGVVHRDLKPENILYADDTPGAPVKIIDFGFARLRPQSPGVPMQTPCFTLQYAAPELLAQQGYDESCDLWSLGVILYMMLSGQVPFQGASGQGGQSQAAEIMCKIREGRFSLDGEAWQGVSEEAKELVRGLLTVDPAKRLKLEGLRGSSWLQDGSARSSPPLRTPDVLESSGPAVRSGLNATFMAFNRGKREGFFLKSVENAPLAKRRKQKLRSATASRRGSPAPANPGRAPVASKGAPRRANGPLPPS
Sequence of Protein kinase C beta type (P05771 whole entry): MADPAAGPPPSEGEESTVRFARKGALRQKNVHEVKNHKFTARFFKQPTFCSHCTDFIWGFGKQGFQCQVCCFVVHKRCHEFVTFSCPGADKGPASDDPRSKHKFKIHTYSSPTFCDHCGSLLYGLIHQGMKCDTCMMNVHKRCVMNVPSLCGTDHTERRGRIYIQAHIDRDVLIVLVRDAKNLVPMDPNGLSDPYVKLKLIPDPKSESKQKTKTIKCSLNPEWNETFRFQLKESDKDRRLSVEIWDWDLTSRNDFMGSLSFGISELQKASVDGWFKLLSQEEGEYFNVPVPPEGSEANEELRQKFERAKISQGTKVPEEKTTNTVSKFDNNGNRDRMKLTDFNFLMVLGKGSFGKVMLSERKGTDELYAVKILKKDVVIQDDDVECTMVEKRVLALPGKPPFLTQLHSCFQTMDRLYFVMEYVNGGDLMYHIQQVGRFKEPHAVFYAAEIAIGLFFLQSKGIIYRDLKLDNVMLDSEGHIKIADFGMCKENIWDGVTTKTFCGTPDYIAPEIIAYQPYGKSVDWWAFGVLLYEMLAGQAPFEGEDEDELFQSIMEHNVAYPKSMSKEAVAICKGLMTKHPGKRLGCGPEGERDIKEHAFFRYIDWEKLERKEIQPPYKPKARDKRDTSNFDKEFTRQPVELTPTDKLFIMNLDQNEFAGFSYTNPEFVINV
Sequence of Cathepsin G (Homo sapiens) (P08311 whole entry, the tested form may be a part): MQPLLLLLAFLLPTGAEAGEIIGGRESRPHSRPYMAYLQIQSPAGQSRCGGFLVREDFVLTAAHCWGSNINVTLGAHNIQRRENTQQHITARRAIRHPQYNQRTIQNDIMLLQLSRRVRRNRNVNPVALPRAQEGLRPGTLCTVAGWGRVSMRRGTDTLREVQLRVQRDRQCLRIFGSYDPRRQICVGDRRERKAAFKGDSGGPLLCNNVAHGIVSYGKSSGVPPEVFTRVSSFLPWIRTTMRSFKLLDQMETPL
Sequence of Casein kinase I isoform alpha (P48729 whole entry, the tested form may be a part, canonical isoform): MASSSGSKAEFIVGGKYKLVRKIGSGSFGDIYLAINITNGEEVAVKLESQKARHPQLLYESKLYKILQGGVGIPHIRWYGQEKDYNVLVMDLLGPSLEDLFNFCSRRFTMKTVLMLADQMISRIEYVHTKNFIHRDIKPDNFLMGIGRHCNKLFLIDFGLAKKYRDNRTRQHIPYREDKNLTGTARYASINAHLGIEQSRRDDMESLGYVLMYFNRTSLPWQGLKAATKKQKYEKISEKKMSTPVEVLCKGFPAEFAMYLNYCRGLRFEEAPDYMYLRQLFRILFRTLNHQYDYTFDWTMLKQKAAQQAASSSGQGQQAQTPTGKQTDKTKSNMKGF

C[C@@H]1C[C@H]1C(=O)N1CCN(c2cnc(C#N)c(-c3cnn(C)c3)n2)C[C@H]1C
-4%: inhibition [14]
5%: inhibition [17]
6%: inhibition [5] | inhibition [21]
28.1 µM: IC50 [2]
11%: inhibition at 1 h, 10 µM (MAO-A)
> 100 µM: IC50 [1] | IC50 [3] | IC50 [4] | IC50 [6] | IC50 [7] | IC50 [8] | IC50 [9] | IC50 (Angiopoietin-1 receptor) | IC50 [10] | IC50 [11] | IC50 [12] | IC50 [13] | IC50 [15] | IC50 [16] | IC50 [18] | IC50 [19] | IC50 [20] | IC50 [22]
